# From ChEMBL document CHEMBL1201861, “Genomics of Drug Sensitity in Cancer screening data, Wellcome Trust Sanger Institute”
# Experiments:
# MHH-ES-1 = assay: cells; assay type: functional, cell-based; conditions: Homo sapiens
# Description: SANGER: Inhibition of human MHH-ES-1 cell growth in a cell viability assay.
# NCI-H2081 = assay: cells; assay type: functional, cell-based; conditions: Homo sapiens;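 further: growth inhibition of human NCI-H2081 cells, read out with a cell viability assay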
# Description: SANGER: Inhibition of human NCI-H2081 cell growth in a cell viability assay.
# SR = assay: cells; assay type: functional, cell-based; conditions: Homo sapiens
# Description: SANGER: Inhibition of human SR cell growth in a cell viability assay.
# SKG-IIIa = assay: cells; assay type: functional, cell-based; conditions: Homo sapiens;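 further: cell growth inhibition, read out with a cell viability assay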
# Description: SANGER: Inhibition of human SKG-IIIa cell growth in a cell viability assay.
# NCI-H1755 = assay: cells; assay type: functional, cell-based; conditions: Homo sapiens;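 further: cell viability readout used to measure growth inhibition of NCI-H1755 cells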
# Description: SANGER: Inhibition of human NCI-H1755 cell growth in a cell viability assay.
# BCPAP = assay: cells; assay type: functional, cell-based; conditions: Homo sapiens;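 further: growth inhibition of BCPAP cells, read out in a cell viability assay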
# Description: SANGER: Inhibition of human BCPAP cell growth in a cell viability assay.
# T-24 = assay: cells; assay type: functional, cell-based; conditions: Homo sapiens;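 further: growth inhibition of T-24 cells, read out with a cell viability assay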
# Description: SANGER: Inhibition of human T-24 cell growth in a cell viability assay.
# NCI-H522 = assay: cells; assay type: functional, cell-based; conditions: Homo sapiens;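 further: cell viability assay measuring growth inhibition of human NCI-H522 cells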
# Description: SANGER: Inhibition of human NCI-H522 cell growth in a cell viability assay.
# YT = assay: cells; assay type: functional, cell-based; conditions: Homo sapiens
# Description: SANGER: Inhibition of human YT cell growth in a cell viability assay.
# MDA-MB-453 = assay: cells; assay type: functional, cell-based; conditions: Homo sapiens
# Description: SANGER: Inhibition of human MDA-MB-453 cell growth in a cell viability assay.
# SAOS-2 = assay: cells; assay type: functional, cell-based; conditions: Homo sapiens;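 further: growth inhibition of human Saos-2 cells determined by a cell viability assay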
# Description: SANGER: Inhibition of human Saos-2 cell growth in a cell viability assay.
# FTC-133 = assay: cells; assay type: functional, cell-based; conditions: Homo sapiens
# NUGC-3 = assay: cells; assay type: functional, cell-based; conditions: Homo sapiens;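 further: growth inhibition of human NUGC-3 cells, read out with a cell viability assay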
# Description: SANGER: Inhibition of human NUGC-3 cell growth in a cell viability assay.
# KYSE-150 cell line = assay: cells; assay type: functional, cell-based; conditions: Homo sapiens;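 further: growth inhibition of human KYSE-150 cells, read out with a cell viability assay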
# Description: SANGER: Inhibition of human KYSE-150 cell growth in a cell viability assay.
# SW756 = assay: cells; assay type: functional, cell-based; conditions: Homo sapiens;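 further: growth inhibition of human SW756 cells, read out with a cell viability assay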
# Description: SANGER: Inhibition of human SW756 cell growth in a cell viability assay.
# NCI-H2030 = assay: cells; assay type: functional, cell-based; conditions: Homo sapiens;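 further: growth inhibition of human NCI-H2030 cells, read out by a cell viability assay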
# Description: SANGER: Inhibition of human NCI-H2030 cell growth in a cell viability assay.
# TE-15 = assay: cells; assay type: functional, cell-based; conditions: Homo sapiens;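 further: cell viability readout of growth inhibition in TE-15 cells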
# Description: SANGER: Inhibition of human TE-15 cell growth in a cell viability assay.
# HCC1937 = assay: cells; assay type: functional, cell-based; conditions: Homo sapiens;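 further: growth inhibition measured with a cell viability read-out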
# Description: SANGER: Inhibition of human HCC1937 cell growth in a cell viability assay.
# Detroit 562 = assay: cells; assay type: functional, cell-based; conditions: Homo sapiens;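 further: growth inhibition of human Detroit 562 cells, read out by a cell viability assay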
# Description: SANGER: Inhibition of human Detroit562 cell growth in a cell viability assay.
# NCI-H187 = assay: cells; assay type: functional, cell-based; conditions: Homo sapiens;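 further: growth inhibition of NCI-H187 cells, read out as cell viability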
# Description: SANGER: Inhibition of human NCI-H187 cell growth in a cell viability assay.
# GAMG = assay: cells; assay type: functional, cell-based; conditions: Homo sapiens;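 further: cell growth inhibition measured by a viability assay in the GAMG human cell line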
# Description: SANGER: Inhibition of human GAMG cell growth in a cell viability assay.
# CAL-12T = assay: cells; assay type: functional, cell-based, Homo sapiens; conditions: Homo sapiens, CAL-12T;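 further: growth inhibition of human CAL-12T cells, read out with a cell viability assay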
# Description: SANGER: Inhibition of human CAL-12T cell growth in a cell viability assay.
# SW1573 = assay: cells; assay type: functional, cell-based; conditions: Homo sapiens;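 further: growth inhibition of SW1573 cells, read out with a cell viability assay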
# Description: SANGER: Inhibition of human SW1573 cell growth in a cell viability assay.
# SW837 = assay: cells; assay type: functional, cell-based; conditions: Homo sapiens;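 further: growth inhibition of SW837 cells, determined with a cell viability assay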
# Description: SANGER: Inhibition of human SW837 cell growth in a cell viability assay.
# G-401 = assay: cells; assay type: functional, cell-based; conditions: Homo sapiens
# Description: SANGER: Inhibition of human G-401 cell growth in a cell viability assay.
# HTC-C3 = assay: cells; assay type: functional, cell-based; conditions: Homo sapiens;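 further: inhibition of cell growth, read out with a cell viability assay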
# Description: SANGER: Inhibition of human HTC-C3 cell growth in a cell viability assay.
# HOS = assay: cells; assay type: functional, cell-based; conditions: Homo sapiens;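 further: growth inhibition of human HOS cells, read out with a cell viability assay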
# Description: SANGER: Inhibition of human HOS cell growth in a cell viability assay.
# IGROV-1 = assay: cells; assay type: functional, cell-based; conditions: Homo sapiens;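 further: reduction of IGROV-1 cell growth, read out with a viability assay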
# Description: SANGER: Inhibition of human IGROV-1 cell growth in a cell viability assay.
# PC-3 = assay: cells; assay type: functional, cell-based; conditions: Homo sapiens;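 further: cell viability assay measuring growth inhibition of PC-3 cells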
# Description: SANGER: Inhibition of human PC-3 cell growth in a cell viability assay.
# NCI-H727 = assay: cells; assay type: functional, cell-based; conditions: Homo sapiens;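 further: growth inhibition of human NCI-H727 cells, read out with a cell viability assay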
# Description: SANGER: Inhibition of human NCI-H727 cell growth in a cell viability assay.
# EB2 = assay: cells; assay type: functional, cell-based; conditions: Homo sapiens;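 further: growth inhibition of EB2 cells, read out with a cell viability assay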
# Description: SANGER: Inhibition of human EB2 cell growth in a cell viability assay.
# KYSE-180 = assay: cells; assay type: functional, cell-based; conditions: Homo sapiens;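 further: growth inhibition of KYSE-180 cells, read out with a cell viability assay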
# Description: SANGER: Inhibition of human KYSE-180 cell growth in a cell viability assay.
# VM-CUB-1 = assay: cells; assay type: functional, cell-based; conditions: Homo sapiens;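 further: cell viability assay measuring growth inhibition of the human VM-CUB-1 cell line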
# Description: SANGER: Inhibition of human VM-CUB-1 cell growth in a cell viability assay.
# 5637 = assay: cells; assay type: functional, cell-based; conditions: Homo sapiens
# Description: SANGER: Inhibition of human 5637 cell growth in a cell viability assay.
# IST-SL2 = assay: cells; assay type: functional, cell-based; conditions: Homo sapiens;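 further: growth inhibition of human IST-SL2 cells, read out by a cell viability assay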
# Description: SANGER: Inhibition of human IST-SL2 cell growth in a cell viability assay.
# MKN-28 = assay: cells; assay type: functional, cell-based; conditions: Homo sapiens;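 further: cell viability assay read-out, IC50 reflects suppression of growth of human MKN-28 cells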
# Description: SANGER: Inhibition of human MKN28 cell growth in a cell viability assay.
# NCI-H358 = assay: cells; assay type: functional, cell-based; conditions: Homo sapiens;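 further: growth inhibition of NCI-H358 human cells, read out with a cell viability assay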
# Description: SANGER: Inhibition of human NCI-H358 cell growth in a cell viability assay.
# NCI-H1437 = assay: cells; assay type: functional, cell-based; conditions: Homo sapiens;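 further: growth inhibition of human NCI-H1437 cells, read out by a cell viability assay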
# Description: SANGER: Inhibition of human NCI-H1437 cell growth in a cell viability assay.
# SW1463 = assay: cells; assay type: functional, cell-based; conditions: Homo sapiens;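 further: growth inhibition of SW1463 cells, determined with a cell viability assay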
# Description: SANGER: Inhibition of human SW1463 cell growth in a cell viability assay.
# JEG-3 = assay: cells; assay type: functional, cell-based; conditions: Homo sapiens;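 further: growth inhibition of human JEG-3 cells, read out with a cell viability assay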
# Description: SANGER: Inhibition of human JEG-3 cell growth in a cell viability assay.
# SCC-25 = assay: cells; assay type: functional, cell-based; conditions: Homo sapiens;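 further: growth inhibition of SCC-25 cells, measured with a cell viability assay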
# Description: SANGER: Inhibition of human SCC-25 cell growth in a cell viability assay.
# MRK-nu-1 = assay: cells; assay type: functional, cell-based; conditions: Homo sapiens;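 further: cell viability assay measuring growth suppression of human MRK-nu-1 cells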
# Description: SANGER: Inhibition of human MRK-nu-1 cell growth in a cell viability assay.
# MFE-280 = assay: cells; assay type: functional, cell-based; conditions: Homo sapiens;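 further: growth inhibition of MFE-280 cells, determined with a cell viability readout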
# Description: SANGER: Inhibition of human MFE-280 cell growth in a cell viability assay.
# JIYOYE = assay: cells; assay type: functional, cell-based; conditions: Homo sapiens
# Description: SANGER: Inhibition of human JiyoyeP-2003 cell growth in a cell viability assay.
# SBC-5 = assay: cells; assay type: functional, cell-based; conditions: Homo sapiens;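 further: cell viability assay read-out, IC50 is the concentration that inhibits growth of the cells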
# Description: SANGER: Inhibition of human SBC-5 cell growth in a cell viability assay.
# A673 = assay: cells; assay type: functional, cell-based; conditions: Homo sapiens;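 further: growth inhibition of human A673 cells, read out through a cell viability assay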
# Description: SANGER: Inhibition of human A673 cell growth in a cell viability assay.
# BHT-101 = assay: cells; assay type: functional, cell-based; conditions: Homo sapiens
# Description: SANGER: Inhibition of human BHT-101 cell growth in a cell viability assay.
# CAL-148 = assay: cells; assay type: functional, cell-based; conditions: Homo sapiens
# Description: SANGER: Inhibition of human CAL-148 cell growth in a cell viability assay.
# NCI-H1522 = assay: cells; assay type: functional, cell-based; conditions: Homo sapiens;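 further: growth inhibition of NCI-H1522 cells, read out with a cell viability assay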
# Description: SANGER: Inhibition of human NCI-H1522 cell growth in a cell viability assay.
# MHH-CALL-2 = assay: cells; assay type: functional, cell-based; conditions: Homo sapiens;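 further: growth inhibition of the cell line, read out in a cell viability assay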
# Description: SANGER: Inhibition of human MHH-CALL-2 cell growth in a cell viability assay.
# EFM-19 = assay: cells; assay type: functional, cell-based; conditions: Homo sapiens;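 further: growth inhibition of human EFM-19 cells, measured in a cell viability assay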
# Description: SANGER: Inhibition of human EFM-19 cell growth in a cell viability assay.
# MONO-MAC-6 = assay: cells; assay type: functional, cell-based; conditions: Homo sapiens;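 further: cell viability assay measuring growth inhibition of human MONO-MAC-6 cells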
# Description: SANGER: Inhibition of human MONO-MAC-6 cell growth in a cell viability assay.
# HN = assay: cells; assay type: functional, cell-based; conditions: Homo sapiens
# Description: SANGER: Inhibition of human HN cell growth in a cell viability assay.
# NCCIT = assay: SANGER: Inhibition of human NCCIT cell growth in a cell viability assay.; assay type: functional, cell-based
# NCI-H520 = assay: cells; assay type: functional, cell-based; conditions: Homo sapiens;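 further: growth inhibition of NCI-H520 cells, measured by a cell viability assay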
# Description: SANGER: Inhibition of human NCI-H520 cell growth in a cell viability assay.
# NCI-H719 = assay: cells; assay type: functional, cell-based; conditions: Homo sapiens;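 further: growth inhibition of the cultured cell line, read out with a viability assay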
# Description: SANGER: Inhibition of human NCI-H719 cell growth in a cell viability assay.
# HMV-2 cell line = assay: cells; assay type: functional, cell-based; conditions: Homo sapiens;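 further: growth inhibition of HMV-II cells, read out with a cell viability assay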
# Description: SANGER: Inhibition of human HMV-II cell growth in a cell viability assay.
# AGS = assay: cells; assay type: functional, cell-based; conditions: Homo sapiens;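 further: growth inhibition of AGS cells, determined with a cell viability assay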
# Description: SANGER: Inhibition of human AGS cell growth in a cell viability assay.
# MC-CAR = assay: cells; assay type: functional, cell-based; conditions: Homo sapiens;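 further: growth inhibition of the human MC-CAR cell line, read out by a cell viability assay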
# Description: SANGER: Inhibition of human MC-CAR cell growth in a cell viability assay.
# Raji = assay: cells; assay type: functional, cell-based; conditions: Homo sapiens;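 further: cell viability assay measuring inhibition of Raji cell growth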
# Description: SANGER: Inhibition of human Raji cell growth in a cell viability assay.
# ChaGo-K-1 = assay: cells; assay type: functional, cell-based; conditions: Homo sapiens
# Description: SANGER: Inhibition of human ChaGo-K-1 cell growth in a cell viability assay.
# NCI-H1793 = assay: cells; assay type: functional, cell-based; conditions: Homo sapiens
# Description: SANGER: Inhibition of human NCI-H1793 cell growth in a cell viability assay.
# NCI-H1417 = assay: cells; assay type: functional, cell-based; conditions: Homo sapiens
# Description: SANGER: Inhibition of human NCI-H1417 cell growth in a cell viability assay.
# NCI-H630 = assay: cells; assay type: functional, cell-based; conditions: Homo sapiens
# Description: SANGER: Inhibition of human NCI-H630 cell growth in a cell viability assay.
# KP-4 = assay: cells; assay type: functional, cell-based; conditions: Homo sapiens
# Description: SANGER: Inhibition of human KP-4 cell growth in a cell viability assay.
compound,measurement,setting,value
CO[C@@]12[C@H](COC(N)=O)C3=C(C(=O)C(C)=C(N)C3=O)N1C[C@@H]1N[C@@H]12 [MITOMYCIN],IC50,MHH-ES-1,16.3 nM
same,IC50,NCI-H2081,741 nM
same,IC50,SR,< 62.5 nM
same,IC50,SKG-IIIa,377 nM
same,IC50,NCI-H1755,5.44 µM
same,IC50,BCPAP,240 nM
same,IC50,T-24,246 nM
same,IC50,NCI-H522,169 nM
same,IC50,YT,463 nM
same,IC50,MDA-MB-453,1080 nM
same,IC50,SAOS-2,1410 nM
same,IC50,FTC-133,517 nM
same,IC50,NUGC-3,16.9 nM
same,IC50,KYSE-150 cell line,34.1 nM
same,IC50,SW756,597 nM
same,IC50,NCI-H2030,211 nM
same,IC50,TE-15,73.7 nM
same,IC50,HCC1937,594 nM
same,IC50,Detroit 562,170 nM
same,IC50,NCI-H187,708 nM
same,IC50,GAMG,428 nM
same,IC50,CAL-12T,491 nM
same,IC50,SW1573,145 nM
same,IC50,SW837,276 nM
same,IC50,G-401,634 nM
same,IC50,HTC-C3,5.79 µM
same,IC50,HOS,107 nM
same,IC50,IGROV-1,106 nM
same,IC50,PC-3,4.07 µM
same,IC50,NCI-H727,212 nM
same,IC50,EB2,65.4 nM
same,IC50,KYSE-180,202 nM
same,IC50,VM-CUB-1,261 nM
same,IC50,5637,31.9 nM
same,IC50,IST-SL2,388 nM
same,IC50,MKN-28,230 nM
same,IC50,NCI-H358,276 nM
same,IC50,NCI-H1437,126 nM
same,IC50,SW1463,2080 nM
same,IC50,JEG-3,2230 nM
same,IC50,SCC-25,870 nM
same,IC50,MRK-nu-1,110 nM
same,IC50,MFE-280,8.35 µM
same,IC50,JIYOYE,630 nM
same,IC50,SBC-5,< 62.5 nM
same,IC50,A673,790 nM
same,IC50,BHT-101,1740 nM
same,IC50,CAL-148,17.8 nM
same,IC50,NCI-H1522,3.24 µM
same,IC50,MHH-CALL-2,< 62.5 nM
same,IC50,EFM-19,2090 nM
same,IC50,MONO-MAC-6,72.4 nM
same,IC50,HN,783 nM
same,IC50,NCCIT,1010 nM
same,IC50,NCI-H520,169 nM
same,IC50,NCI-H719,35.1 nM
same,IC50,HMV-2 cell line,166 nM
same,IC50,AGS,106 nM
same,IC50,MC-CAR,161 nM
same,IC50,Raji,1220 nM
same,IC50,ChaGo-K-1,1910 nM
same,IC50,NCI-H1793,1810 nM
same,IC50,NCI-H1417,237 nM
C[C@]12O[C@H](C[C@]1(O)CO)n1c3ccccc3c3c4c(c5c6ccccc6n2c5c31)CNC4=O [LESTAURTINIB],IC50,MHH-ES-1,321 nM
same,IC50,NCI-H630,> 2 µM
same,IC50,SKG-IIIa,255 nM
same,IC50,NCI-H1755,0.185 µM
same,IC50,BCPAP,970 nM
same,IC50,T-24,> 2000 nM
same,IC50,MDA-MB-453,1910 nM
same,IC50,SAOS-2,635 nM
same,IC50,FTC-133,158 nM
same,IC50,NUGC-3,> 2000 nM
same,IC50,KYSE-150 cell line,651 nM
same,IC50,SW756,630 nM
same,IC50,NCI-H2030,1320 nM
same,IC50,HCC1937,> 2000 nM
same,IC50,Detroit 562,236 nM
same,IC50,GAMG,382 nM
same,IC50,CAL-12T,870 nM
same,IC50,SW1573,1070 nM
same,IC50,SW837,> 2000 nM
same,IC50,G-401,439 nM
same,IC50,HTC-C3,0.186 µM
same,IC50,HOS,232 nM
same,IC50,IGROV-1,452 nM
same,IC50,PC-3,1.71 µM
same,IC50,NCI-H727,768 nM
same,IC50,KYSE-180,> 2000 nM
same,IC50,VM-CUB-1,651 nM
same,IC50,5637,82.1 nM
same,IC50,MKN-28,> 2000 nM
same,IC50,NCI-H358,> 2000 nM
same,IC50,NCI-H1437,> 2000 nM
same,IC50,SW1463,> 2000 nM
same,IC50,JEG-3,730 nM
same,IC50,SCC-25,758 nM
same,IC50,MFE-280,> 2 µM
same,IC50,SBC-5,254 nM
same,IC50,A673,718 nM
same,IC50,KP-4,568 nM
same,IC50,BHT-101,464 nM
same,IC50,EFM-19,151 nM
same,IC50,HN,182 nM
same,IC50,NCI-H520,203 nM
same,IC50,HMV-2 cell line,55.8 nM
same,IC50,AGS,69.1 nM
same,IC50,ChaGo-K-1,1960 nM
same,IC50,NCI-H1793,> 2000 nM
C[C@]1(c2nc3c(C(N)=O)cccc3[nH]2)CCCN1 [VELIPARIB],IC50,MHH-ES-1,> 5000 nM
same,IC50,NCI-H630,> 5 µM
same,IC50,SKG-IIIa,> 5000 nM
same,IC50,NCI-H1755,> 5 µM
same,IC50,BCPAP,> 5000 nM
same,IC50,T-24,> 5000 nM
same,IC50,MDA-MB-453,> 5000 nM
same,IC50,SAOS-2,> 5000 nM
same,IC50,FTC-133,> 5000 nM
same,IC50,NUGC-3,> 5000 nM
same,IC50,KYSE-150 cell line,> 5000 nM
same,IC50,SW756,> 5000 nM
same,IC50,NCI-H2030,> 5000 nM
same,IC50,HCC1937,> 5000 nM
same,IC50,Detroit 562,> 5000 nM
same,IC50,GAMG,> 5000 nM
same,IC50,CAL-12T,> 5000 nM
same,IC50,SW1573,> 5000 nM
same,IC50,SW837,> 5000 nM
same,IC50,G-401,> 5000 nM
same,IC50,HTC-C3,> 5 µM
same,IC50,HOS,> 5000 nM
same,IC50,IGROV-1,> 5000 nM
same,IC50,PC-3,> 5 µM
same,IC50,NCI-H727,> 5000 nM
same,IC50,KYSE-180,> 5000 nM
same,IC50,VM-CUB-1,> 5000 nM
same,IC50,5637,> 5000 nM
same,IC50,MKN-28,> 5000 nM
same,IC50,NCI-H358,> 5000 nM
same,IC50,NCI-H1437,> 5000 nM
same,IC50,SW1463,> 5000 nM
same,IC50,JEG-3,> 5000 nM
same,IC50,SCC-25,> 5000 nM
same,IC50,MFE-280,> 5 µM
same,IC50,SBC-5,> 5000 nM
same,IC50,A673,> 5000 nM
same,IC50,KP-4,> 5000 nM
same,IC50,BHT-101,> 5000 nM
same,IC50,EFM-19,> 5000 nM
same,IC50,HN,> 5000 nM
same,IC50,NCI-H520,> 5000 nM
same,IC50,HMV-2 cell line,> 5000 nM
same,IC50,AGS,> 5000 nM
same,IC50,ChaGo-K-1,> 5000 nM
same,IC50,NCI-H1793,> 5000 nM
